# Test results as given in PMC5773580, “A synthetic combinatorial approach to disabling deviant Hedgehog signaling” (Scientific Reports, 2018).
# Several values for one entry are separate records, joined by “and”; a condition that tells them apart may be missing. Equal entries are not always repeated.
# Key:
# [1] = molecular target: T1, HDAC7 (Homo sapiens, UniProt Q8WUI4); assay: In vitro HDAC profiling (deacetylation assay), HDAC7; type: biochemical; settings: for HDAC Activity (Fluorescent counts): Repeat1/Repeat 2
# T1 construct: purchased BPS Bioscience #50051-11
# T1 sequence (Q8WUI4 1-952): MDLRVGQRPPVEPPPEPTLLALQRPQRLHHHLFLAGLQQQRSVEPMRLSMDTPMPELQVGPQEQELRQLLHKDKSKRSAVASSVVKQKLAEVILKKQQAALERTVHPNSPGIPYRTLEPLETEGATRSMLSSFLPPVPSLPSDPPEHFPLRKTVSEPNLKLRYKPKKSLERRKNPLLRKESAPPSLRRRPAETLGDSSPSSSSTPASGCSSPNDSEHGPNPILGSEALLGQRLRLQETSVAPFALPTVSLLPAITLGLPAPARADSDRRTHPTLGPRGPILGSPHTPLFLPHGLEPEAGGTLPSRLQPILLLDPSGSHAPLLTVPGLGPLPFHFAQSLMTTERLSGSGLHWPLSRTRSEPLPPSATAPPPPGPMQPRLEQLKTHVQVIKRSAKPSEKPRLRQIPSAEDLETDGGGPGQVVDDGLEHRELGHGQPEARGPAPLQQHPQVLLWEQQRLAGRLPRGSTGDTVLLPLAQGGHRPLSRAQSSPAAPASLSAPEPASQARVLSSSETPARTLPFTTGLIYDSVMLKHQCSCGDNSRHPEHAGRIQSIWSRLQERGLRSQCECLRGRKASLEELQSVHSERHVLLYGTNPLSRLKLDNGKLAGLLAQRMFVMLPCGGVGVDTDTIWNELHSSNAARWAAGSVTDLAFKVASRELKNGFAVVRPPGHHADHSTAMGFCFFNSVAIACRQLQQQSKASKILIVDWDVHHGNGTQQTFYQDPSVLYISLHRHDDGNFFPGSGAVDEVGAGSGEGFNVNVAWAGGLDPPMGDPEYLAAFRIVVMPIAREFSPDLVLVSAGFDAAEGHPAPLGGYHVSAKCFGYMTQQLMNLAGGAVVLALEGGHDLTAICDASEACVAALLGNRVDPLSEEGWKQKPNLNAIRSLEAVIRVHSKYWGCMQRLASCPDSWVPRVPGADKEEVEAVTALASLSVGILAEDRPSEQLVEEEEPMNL
# Method: HDAC profiling was performed at BPS Bioscience (San Diego, CA). All of the compounds are dissolved in DMSO. A series of dilutions of the compounds were prepared with 10% DMSO in HDAC assay buffer (#50031) and 5 µl of the dilution was added to a 50 µl reaction so that the final concentration of DMSO is 1% in all of reactions. All of the enzymatic reactions were conducted in duplicate at 37 °C for 30 mins, except that the enzyme reactions for HDAC11 were at room temperature for 3 hrs. All of the reactions were performed in a 50 µl mixture containing HDAC assay buffer, 5 µg BSA, an HDAC substrate [HDAC Substrate 3 (BPS number 50037) or HDAC Class 2a Substrate 1 (BPS number 50040)], an HDAC enzyme (#50051-11) and a test compound. After enzymatic reactions, 50 μl of HDAC Developer (#50030) was added to each well and the plate was incubated at room temperature for an additional 20 mins. Fluorescence intensity was measured at an excitation of 360 nm and an emission of 460 nm using a Tecan Infinite M1000 microplate reader. HDAC activity assays were performed in duplicates at each concentration. The fluorescent intensity data were analyzed using the computer software, Graphpad Prism. In the absence of the compound, the fluorescent intensity (Ft) in each data set was defined as 100% activity. In the absence of HDAC, the fluorescent intensity (Fb) in each data set was defined as 0% activity. The percent activity in the presence of each compound was calculated according to the following equation: %activity = (F − Fb)/(Ft − Fb), where F = the fluorescent intensity in the presence of the compound. The values of % activity versus a series of compound concentrations were then plotted using non-linear regression analysis of Sigmoidal dose-response curve generated with the equation Y = B + (T − B)/1 + 10((LogIC50 − X) × Hill Slope), where Y = percent activity, B = minimum percent activity, T = maximum percent activity, X = logarithm of compound and Hill Slope = slope factor or Hill coefficient. The IC50 value was determined by the concentration causing a half-maximal percent activity.
# [2] = system: SHH-induced GLI activity (GLI-BS reporter) in NIH3T3; assay: HH pathway reporter (GLI-BS reporter) assay, +Shh in NIH3T3; type: cell-based; settings: Mus musculus; +Shh in NIH3T3, 48 hrs with compound
# Method: (§1) The HH-responsive firefly luciferase reporter (GLI-BS) and a control Renilla luciferase reporter (SV40-RL) were transfected into indicated cell lines using Effectene (Qiagen) either alone or with indicated DNAs. 24 hrs after transfection, cells were switched to low serum media (3% calf serum), and grown for another 48 hrs. in 5% CO2 in the presence/absence of compounds. 3T3-ShhFL cell line that stably expressing SHH and the two reporters were cultured in a similar fashion. FL and RL activities in lysate generated using Passive Lysis Buffer (Promega) were then assessed using the Dual-Luciferase kit (Promega) and a 96-well plate reading luminometer (BMG). The ratio of FL/RL was calculated and the averaged ratios from three replicates were reported.
# [3] = system: SMO-L412F in NIH3T3 (GLI-BS reporter); assay: GLI-BS reporter assay, NIH3T3 cells with SMO-L412F DNA; type: cell-based; settings: Mus musculus
# Method: as §1
# [4] = system: RMS13 cells (GLI1 amp), GLI-BS reporter; assay: GLI-BS reporter assay in RMS13 cells (GLI1 amplification); type: cell-based
# Method: as §1
smiles,measurement,setting,value
O=C(CCCCCCC(=O)Nc1ccc(Cl)c(C(=O)Nc2ccc(NC(=O)c3cc(Cl)ccc3Cl)cc2)c1)NO [IHR-SAHA],HDAC Activity (Fluorescent counts),"[1]; HDAC7, WW01 0 Log nM",32252 Fluorescent counts and 31868 Fluorescent counts
same,HDAC Activity (Fluorescent counts),"[1]; HDAC7, WW01 0.5 Log nM",34296 Fluorescent counts and 32176 Fluorescent counts
same,HDAC Activity (Fluorescent counts),"[1]; HDAC7, WW01 1 Log nM",33398 Fluorescent counts and 31906 Fluorescent counts
same,HDAC Activity (Fluorescent counts),"[1]; HDAC7, WW01 1.5 Log nM",32702 Fluorescent counts and 31126 Fluorescent counts
same,HDAC Activity (Fluorescent counts),"[1]; HDAC7, WW01 2 Log nM",31277 Fluorescent counts and 30567 Fluorescent counts
same,HDAC Activity (Fluorescent counts),"[1]; HDAC7, WW01 2.5 Log nM",29706 Fluorescent counts and 30369 Fluorescent counts
same,HDAC Activity (Fluorescent counts),"[1]; HDAC7, WW01 3 Log nM",26605 Fluorescent counts and 26320 Fluorescent counts
same,HDAC Activity (Fluorescent counts),"[1]; HDAC7, WW01 3.5 Log nM",26104 Fluorescent counts and 24955 Fluorescent counts
same,HDAC Activity (Fluorescent counts),"[1]; HDAC7, WW01 4 Log nM",25321 Fluorescent counts and 25226 Fluorescent counts
same,HDAC Activity (Fluorescent counts),"[1]; HDAC7, WW01 -0.5 Log nM",33125 Fluorescent counts and 32259 Fluorescent counts
same,IC50,"[1]; in vitro deacetylation assay, duplicates",> 10000 nM
same,IC50,[2],3 nM
same,IC50,[3],140 nM
same,IC50,[4],1300 nM
